From ChEMBL document CHEMBL5647692, “The novel dual PI3K/mTOR inhibitor NVP-BGT226 displays cytotoxic activity in both normoxic and hypoxic hepatocarcinoma cells” (Oncotarget, 2015) come the findings set out here.

Molecules are shown by their SMILES. Activity calls are given as the source filed them. The calls are words filed in the database; no cut-off is given here. Peptide text beside a SMILES is read from it. * marks the point of attachment. Cbz = O=C(OCc1ccccc1)*; CH2F = FC*

The test system of experiment [1] is SNU-475. Nature of the experiment: Cytotoxicity against human SNU-475 cells assessed as reduction in cell viability at 25 uM incubated for 24 hrs under hypoxia condition by MTT assay. The class given is functional, cell-based. For orientation: Formazan colour is commonly taken as a measure of viable cells.
In experiment [2] the test system is SNU-475. Nature of the experiment: Cytotoxicity against human SNU-475 cells assessed as reduction in cell viability at 25 uM incubated for 24 hrs in presence of BGT226 under hypoxia condition by MTT assay. The class given is functional, cell-based.
Experiment [3] concerns Mahlavu. The experiment is described as follows: Cytotoxicity against human Mahlavu cells assessed as reduction in cell viability at 10 uM incubated for 24 hrs under normoxia condition by MTT assay. The class given is functional, cell-based.
Experiment [4] has as its system Mahlavu. Nature of the experiment: Induction of autophagy in human Mahlavu cells assessed as reduction in cytotoxicity at 10 to 25 uM incubated for 24 hrs by MTT assay. The format is functional, cell-based. The following applies: dose 10-25 µM.
Experiment [5] has as its system SNU-475. Nature of the experiment: Cytotoxicity against human SNU-475 cells assessed as reduction in cell viability at 10 uM incubated for 24 hrs in presence of BGT226 under hypoxia condition by MTT assay. The class given is functional, cell-based.
In experiment [6] the test system is Mahlavu. Nature of the experiment: Cytotoxicity against human Mahlavu cells assessed as reduction in cell viability at 10 uM incubated for 24 hrs in presence of BGT226 under hypoxia condition by MTT assay. The format is functional, cell-based.
The subject of experiment [7] is SNU-475. Nature of the experiment: Induction of autophagy in human SNU-475 cells assessed as reduction in cytotoxicity at 10 to 25 uM incubated for 24 hrs by MTT assay. The class given is functional, cell-based. The following applies: dose 10-25 µM.
Experiment [8] deals with SNU-475. The experiment is described as follows: Cytotoxicity against human SNU-475 cells assessed as reduction in cell viability at 10 uM incubated for 24 hrs under hypoxia condition by MTT assay. The format is functional, cell-based.
Experiment [9] deals with Mahlavu. Nature of the experiment: Cytotoxicity against human Mahlavu cells assessed as reduction in cell viability at 25 uM incubated for 24 hrs under hypoxia condition by MTT assay. The class given is functional, cell-based.
In experiment [10] the test system is Mahlavu. The experiment is described as follows: Cytotoxicity against human Mahlavu cells assessed as reduction in cell viability at 25 uM incubated for 24 hrs in presence of BGT226 under hypoxia condition by MTT assay. The class given is functional, cell-based.
The next experiment deals with HepG2. The experiment is described as follows: Cytotoxicity against human HepG2 cells assessed as reduction in cell viability at 10 uM incubated for 24 hrs by MTT assay. The class given is functional, cell-based.
Experiment [11] relates to Mahlavu. Nature of the experiment: Cytotoxicity against human Mahlavu cells assessed as reduction in cell growth at 10 uM incubated for 24 hrs under hypoxia condition by MTT assay. The class given is functional, cell-based.
Experiment [12] deals with Hep 3B2. Nature of the experiment: Cytotoxicity against human Hep3B cells assessed as reduction in cell growth at 10 uM incubated for 24 hrs under hypoxia condition by MTT assay. The format is functional, cell-based.
Experiment [13] concerns Hep 3B2. Nature of the experiment: Cytotoxicity against human Hep3B cells assessed as reduction in cell viability at 10 uM incubated for 24 hrs by MTT assay. The format is functional, cell-based.
The test system of experiment [14] is SNU-449. Nature of the experiment: Induction of apoptosis in human SNU-449 cells assessed as necrotic cells at 75 uM incubated for 24 hrs by Annexin-V/7-AAD staining based muse cell analyzer method (reference value: 0.95 %). The format is functional.
Experiment [15] relates to Mahlavu. The experiment is described as follows: Induction of apoptosis in human Mahlavu cells assessed as late apoptotic cells at 75 uM incubated for 24 hrs by Annexin-V/7-AAD staining based muse cell analyzer method (reference value: 2.24 %). The format is functional.
Experiment [16] deals with SNU-449. The experiment is described as follows: Induction of apoptosis in human SNU-449 cells assessed as late apoptotic cells at 75 uM incubated for 24 hrs by Annexin-V/7-AAD staining based muse cell analyzer method (reference value: 5.03 %). The class given is functional.
Experiment [17] has as its system Mahlavu. The experiment is described as follows: Induction of apoptosis in human Mahlavu cells assessed as early apoptotic cells at 75 uM incubated for 24 hrs by Annexin-V/7-AAD staining based muse cell analyzer method (reference value: 6.57 %). The class given is functional.
The subject of experiment [18] is Mahlavu. Nature of the experiment: Induction of apoptosis in human Mahlavu cells assessed as necrotic cells at 75 uM incubated for 24 hrs by Annexin-V/7-AAD staining based muse cell analyzer method (reference value: 0.67 %). The format is functional.
In experiment [19] the test system is SNU-449. Nature of the experiment: Induction of apoptosis in human SNU-449 cells assessed as early apoptotic cells at 75 uM incubated for 24 hrs by Annexin-V/7-AAD staining based muse cell analyzer method (reference value: 3.95 %). The class given is functional.
The test system of experiment [20] is SNU-449. Nature of the experiment: Induction of apoptosis in human SNU-449 cells assessed as viable cells at 75 uM incubated for 24 hrs by Annexin-V/7-AAD staining based muse cell analyzer method (reference value: 90.07 %). The class given is functional. To be noted: read-out: Activity.
In experiment [21] the test system is Mahlavu. Nature of the experiment: Induction of apoptosis in human Mahlavu cells assessed as viable cells at 75 uM incubated for 24 hrs by Annexin-V/7-AAD staining based muse cell analyzer method (reference value: 90.52 %). The format is functional. The following applies: read-out: Activity.

As to `CCN(CC)CCCC(C)Nc1ccnc2cc(Cl)ccc12` (configuration not stated), the result in the experiment on SNU-475 [1], in the experiment with SNU-475 [2], in the experiment on Mahlavu [3], in the experiment with Mahlavu [4], in the experiment with SNU-475 [5] and in the experiment with Mahlavu [6] was Active. For the same molecule, the result with SNU-475 [7], in the experiment with SNU-475 [8], in the experiment on Mahlavu [9] and with Mahlavu [10] was Active.
`Cn1cnc(N)c2ncnc1-2`: the result in the experiment on HepG2, in the experiment with Mahlavu [11], in the experiment on Hep 3B2 [12] and with Hep 3B2 [13] was inactive.
Consider `COC(=O)C[C@H](NC(=O)[C@H](C)NC(=O)[C@@H](NC(=O)OCc1ccccc1)C(C)C)C(=O)CF` (Cbz-Val-Ala-Asp(OMe)-CH2F), for which the Activity in the experiment on SNU-449 [14] came out at 0.53%; in the experiment on Mahlavu [15], 3.78%; in the experiment on SNU-449 [16] it was 5.35%; with Mahlavu [17], 5%; in the experiment with Mahlavu [18] it was 1.52%; in the experiment on SNU-449 [19] it was 4.6%. In addition, the viability at 75 µM with SNU-449 [20] was 89.5%; in the experiment with Mahlavu [21], 89.7%.
